In publication PMC6001238, “Iterative Chemical Engineering of Vancomycin Leads to Novel Vancomycin Analogs With a High in Vitro Therapeutic Index” (Frontiers in Microbiology, 2018):
≈ marks a conversion by molar mass, not a printed value.

Columns and labels:
E. faecalis VRE 6 = experiment: MIC, broth microdilution, vancomycin-resistant E. faecalis VRE 6 (VanA); assay type: cell-based, Enterococcus faecalis; conditions: for MIC: Enterococcus faecalis VRE 6 (vancomycin-resistant), read-out: MIC; for MIC-fold improvement vs. vancomycin: VRE 6, ratio of MIC of vancomycin and MIC of analogue
Summary of the method: (§1)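 MIC values come from broth microdilution run to CLSI susceptibility-testing standards. Ultrapure water and uninoculated broth served as controls. In one series, vancomycin at a final 10 μM was co-dosed with the analogue or comparator antibiotic.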

E. faecalis VRE 53 = experiment: MIC, broth microdilution, vancomycin-resistant E. faecalis VRE 53 (VanA); assay type: cell-based, Enterococcus faecalis; conditions: for MIC: Enterococcus faecalis VRE 53 (vancomycin-resistant), read-out: MIC; for MIC-fold improvement vs. vancomycin: VRE 53, ratio of MIC of vancomycin and MIC of analogue
Summary of the method: as §1

S. aureus VRSA = experiment: MIC, broth microdilution, vancomycin-resistant S. aureus (VRSA); assay type: cell-based, Staphylococcus aureus; conditions: for MIC: Staphylococcus aureus VRSA, read-out: MIC; for MIC-fold improvement vs. vancomycin: VRSA, ratio of MIC of vancomycin and MIC of analogue
Summary of the method: as §1

[1] = test system: S. aureus VSSA (ATCC 6538); experiment: MIC, broth microdilution, vancomycin-sensitive S. aureus (VSSA/MSSA, ATCC 6538); assay type: cell-based, Staphylococcus aureus; conditions: for MIC: Staphylococcus aureus VSSA, read-out: MIC; for MIC-fold improvement vs. vancomycin: VSSA, ratio of MIC of vancomycin and MIC of analogue
Summary of the method: as §1

MRSA KS1 = experiment: MIC, broth microdilution, MRSA KS1; assay type: cell-based, Staphylococcus aureus; conditions: for MIC-fold improvement vs. vancomycin: MRSA KS1, ratio of MIC of vancomycin and MIC of analogue; for MIC: Staphylococcus aureus MRSA KS1, read-out: MIC
Summary of the method: as §1

[2] = test system: human T-lymphocyte (CEM) cells; experiment: Cytostatic activity, CEM cell proliferation; assay type: cell-based; conditions: mean ± SD of three experiments; highest concentration tested 250 µM; 3 days; read-out: Toxicity (IC50) CEM
Summary of the method: (§2)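 Test compounds, serially diluted, received an equal volume of cell suspension at 300,000–500,000 cells/mL. After 37°C incubation (2 days for L1210, 3 for CEM, 4 for HeLa), cells were enumerated by Coulter counting and 50%-inhibitory concentrations calculated per cell type.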

[3] = test system: human cervix carcinoma (HeLa) cells; experiment: Cytostatic activity, HeLa cell proliferation; assay type: cell-based; conditions: mean ± SD of three experiments; highest concentration tested 250 µM; 4 days; read-out: Toxicity (IC50) HeLa
Summary of the method: as §2

[4] = test system: L1210, CEM and HeLa cell lines; experiment: Cytostatic activity, average or summary over L1210, CEM and HeLa; assay type: cell-based; conditions: average of L1210, CEM and HeLa; read-out: Toxicity (IC50) Average
Summary of the method: as §2

E. faecalis VRE 37 = experiment: MIC, broth microdilution, vancomycin-resistant E. faecalis VRE 37 (VanA); assay type: cell-based, Enterococcus faecalis; conditions: for MIC: Enterococcus faecalis VRE 37 (vancomycin-resistant), read-out: MIC; for MIC-fold improvement vs. vancomycin: VRE 37, ratio of MIC of vancomycin and MIC of analogue
Summary of the method: as §1

E. faecalis VRE 29 = experiment: MIC, broth microdilution, vancomycin-resistant E. faecalis VRE 29 (VanA); assay type: cell-based, Enterococcus faecalis; conditions: for MIC: Enterococcus faecalis VRE 29 (vancomycin-resistant), read-out: MIC; for MIC-fold improvement vs. vancomycin: VRE 29, ratio of MIC of vancomycin and MIC of analogue
Summary of the method: as §1

S. aureus VISA/HIP5827 = experiment: MIC, broth microdilution, vancomycin-intermediate S. aureus VISA HIP5827; assay type: cell-based, Staphylococcus aureus; conditions: for MIC: Staphylococcus aureus VISA/HIP5827, read-out: MIC; for MIC-fold improvement vs. vancomycin: VISA/HIP5827, ratio of MIC of vancomycin and MIC of analogue
Summary of the method: as §1

E. faecalis VSE 1 = experiment: MIC, broth microdilution, vancomycin-sensitive E. faecalis (VSE 1); assay type: cell-based, Enterococcus faecalis; conditions: for MIC: Enterococcus faecalis VSE 1 (vancomycin-sensitive), read-out: MIC; for MIC-fold improvement vs. vancomycin: VSE 1, ratio of MIC of vancomycin and MIC of analogue
Summary of the method: as §1

MRSA KS2 = experiment: MIC, broth microdilution, MRSA KS2; assay type: cell-based, Staphylococcus aureus; conditions: for MIC-fold improvement vs. vancomycin: MRSA KS2, ratio of MIC of vancomycin and MIC of analogue; for MIC: Staphylococcus aureus MRSA KS2, read-out: MIC
Summary of the method: as §1

MRSA KS89 = experiment: MIC, broth microdilution, MRSA KS89; assay type: cell-based, Staphylococcus aureus; conditions: for MIC-fold improvement vs. vancomycin: MRSA KS8, ratio of MIC of vancomycin and MIC of analogue; for MIC: Staphylococcus aureus MRSA KS8, read-out: MIC
Summary of the method: as §1

[5] = test system: Murine leukemia (L1210) cells; experiment: Cytostatic activity, L1210 cell proliferation; assay type: cell-based; conditions: mean ± SD of three experiments; highest concentration tested 250 µM; 2 days; read-out: Toxicity (IC50) L1210
Summary of the method: as §2

MRSA KS6 = experiment: MIC, broth microdilution, MRSA KS6; assay type: cell-based, Staphylococcus aureus; conditions: for MIC-fold improvement vs. vancomycin: MRSA KS6, ratio of MIC of vancomycin and MIC of analogue; for MIC: Staphylococcus aureus MRSA KS6, read-out: MIC
Summary of the method: as §1

| MIC (E. faecalis VRE 6) | MIC-fold improvement vs. vancomycin (E. faecalis VRE 6) | MIC (E. faecalis VRE 53) | MIC-fold improvement vs. vancomycin (E. faecalis VRE 53) | MIC (S. aureus VRSA) | MIC-fold improvement vs. vancomycin (S. aureus VRSA) | MIC [1] | MIC-fold improvement vs. vancomycin [1] | MIC-fold improvement vs. vancomycin (MRSA KS1) | MIC (MRSA KS1) | MIC (E. faecalis VRE 37) | MIC (E. faecalis VRE 29) | MIC-fold improvement vs. vancomycin (E. faecalis VRE 29) | MIC (S. aureus VISA/HIP5827) | MIC-fold improvement vs. vancomycin (S. aureus VISA/HIP5827) | MIC (E. faecalis VSE 1) | MIC-fold improvement vs. vancomycin (E. faecalis VSE 1) | SMILES | IC50 [2] | IC50 [3] | IC50 [4] | also measured |
| --- | --- | --- | --- | --- | --- | --- | --- | --- | --- | --- | --- | --- | --- | --- | --- | --- | --- | --- | --- | --- | --- |
| 1.56 µM (≈ 2.59 µg/mL) | 128 | 3.13 µM (≈ 5.2 µg/mL) | 128 | 1.56 µM (≈ 2.59 µg/mL) | 64 | 0.10 µM (≈ 0.166 µg/mL) | 8 | 4 | 0.20 µM (≈ 0.332 µg/mL) | 1.56 µM (≈ 2.59 µg/mL) | 6.25 µM (≈ 10.4 µg/mL) | 64 | 0.10 µM (≈ 0.166 µg/mL) | 64 | 0.20 µM (≈ 0.332 µg/mL) | 8 | CCCCC#Cc1ccc(NC(=O)CNC(=O)[C@H]2NC(=O)[C@H]3NC(=O)[C@H](NC(=O)[C@@H]4NC(=O)[C@H](CC(N)=O)NC(=O)[C@H](NC(=O)[C@@H](CC(C)C)NC)[C@H](O)c5ccc(c(Cl)c5)Oc5cc4cc(c5O[C@@H]4O[C@H](CO)[C@@H](O)[C@H](O)[C@H]4O[C@H]4C[C@](C)(N)[C@H](O)[C@H](C)O4)Oc4ccc(cc4Cl)[C@H]3O)c3ccc(O)c(c3)-c3c(O)cc(O)cc32)cc1 [Vanc-37] | 24 ± 4 µM | 118 ± 10 µM | 52 µM | MIC-fold improvement vs. vancomycin (E. faecalis VRE 37): 256; MIC-fold improvement vs. vancomycin (MRSA KS2): 4; MIC (MRSA KS2): 0.20 µM (≈ 0.332 µg/mL); MIC-fold improvement vs. vancomycin (MRSA KS89): 4; MIC (MRSA KS89): 0.20 µM (≈ 0.332 µg/mL); IC50 [5]: 14 ± 7 µM; MIC-fold improvement vs. vancomycin (MRSA KS6): 8; MIC (MRSA KS6): 0.10 µM (≈ 0.166 µg/mL) |
| 0.39 µM (≈ 0.656 µg/mL) | 513 | 3.13 µM (≈ 5.26 µg/mL) | 128 | 0.78 µM (≈ 1.31 µg/mL) | 128 | 0.05 µM (≈ 0.0841 µg/mL) | 16 | 4 | 0.20 µM (≈ 0.336 µg/mL) | 3.13 µM (≈ 5.26 µg/mL) | 1.56 µM (≈ 2.62 µg/mL) | 256 | 0.05 µM (≈ 0.0841 µg/mL) | 128 | 0.20 µM (≈ 0.336 µg/mL) | 8 | CN[C@H](CC(C)C)C(=O)N[C@H]1C(=O)N[C@@H](CC(N)=O)C(=O)N[C@H]2C(=O)N[C@H]3C(=O)N[C@H](C(=O)N[C@H](C(=O)NCC(=O)Nc4ccc(C#Cc5ccccc5)cc4)c4cc(O)cc(O)c4-c4cc3ccc4O)[C@H](O)c3ccc(c(Cl)c3)Oc3cc2cc(c3O[C@@H]2O[C@H](CO)[C@@H](O)[C@H](O)[C@H]2O[C@H]2C[C@](C)(N)[C@H](O)[C@H](C)O2)Oc2ccc(cc2Cl)[C@H]1O [Vanc-38] | 4.4 ± 0.5 µM | 24 ± 1 µM | 12 µM | MIC-fold improvement vs. vancomycin (E. faecalis VRE 37): 128; MIC-fold improvement vs. vancomycin (MRSA KS2): 4; MIC (MRSA KS2): 0.20 µM (≈ 0.336 µg/mL); MIC-fold improvement vs. vancomycin (MRSA KS89): 4; MIC (MRSA KS89): 0.20 µM (≈ 0.336 µg/mL); IC50 [5]: 8 ± 3.1 µM; MIC-fold improvement vs. vancomycin (MRSA KS6): 4; MIC (MRSA KS6): 0.20 µM (≈ 0.336 µg/mL) |
| 6.25 µM (≈ 10.3 µg/mL) | 32 | 25 µM (≈ 41.2 µg/mL) | 16 | 3.13 µM (≈ 5.16 µg/mL) | 32 | 0.78 µM (≈ 1.29 µg/mL) | 1 | 2 | 0.39 µM (≈ 0.643 µg/mL) | 12.5 µM (≈ 20.6 µg/mL) | 12.5 µM (≈ 20.6 µg/mL) | 32 | 1.56 µM (≈ 2.57 µg/mL) | 4 | 0.78 µM (≈ 1.29 µg/mL) | 2 | CN[C@H](CC(C)C)C(=O)N[C@H]1C(=O)N[C@@H](CC(N)=O)C(=O)N[C@H]2C(=O)N[C@H]3C(=O)N[C@H](C(=O)N[C@H](C(=O)NCC(=O)Nc4ccc(C(F)(F)F)cc4)c4cc(O)cc(O)c4-c4cc3ccc4O)[C@H](O)c3ccc(c(Cl)c3)Oc3cc2cc(c3O[C@@H]2O[C@H](CO)[C@@H](O)[C@H](O)[C@H]2O[C@H]2C[C@](C)(N)[C@H](O)[C@H](C)O2)Oc2ccc(cc2Cl)[C@H]1O [Vanc-40] | > 250 µM | > 250 µM | > 250 µM | MIC-fold improvement vs. vancomycin (MRSA KS2): 2; MIC (MRSA KS2): 0.39 µM (≈ 0.643 µg/mL); MIC-fold improvement vs. vancomycin (MRSA KS89): 2; MIC (MRSA KS89): 0.39 µM (≈ 0.643 µg/mL); IC50 [5]: > 250 µM; MIC-fold improvement vs. vancomycin (MRSA KS6): 2; MIC (MRSA KS6): 0.39 µM (≈ 0.643 µg/mL) |
